Patent US20230348468A1, “1H-PYRAZOLO[4,3-d]PYRIMIDINE COMPOUNDS AS TOLL-LIKE RECEPTOR 7 (TLR7) AGONISTS” (BRISTOL-MYERS SQUIBB COMPANY, priority 2020, published 2023)

Key:
human TLR7 = molecular target: T1, human TLR7 (Homo sapiens, UniProt Q9NYK1); experiment: Human TLR7 agonist activity (reporter) assay; type: cell-based; details: HEK-Blue TLR7 cells, SEAP reporter, 18 h treatment; average where assay performed multiple times; read-out: hTLR7 Agonism EC50
T1 construct: host or cells: HEK-Blue TLR7 cells (engineered human embryonic kidney cells)
T1 sequence (Q9NYK1 27-1049): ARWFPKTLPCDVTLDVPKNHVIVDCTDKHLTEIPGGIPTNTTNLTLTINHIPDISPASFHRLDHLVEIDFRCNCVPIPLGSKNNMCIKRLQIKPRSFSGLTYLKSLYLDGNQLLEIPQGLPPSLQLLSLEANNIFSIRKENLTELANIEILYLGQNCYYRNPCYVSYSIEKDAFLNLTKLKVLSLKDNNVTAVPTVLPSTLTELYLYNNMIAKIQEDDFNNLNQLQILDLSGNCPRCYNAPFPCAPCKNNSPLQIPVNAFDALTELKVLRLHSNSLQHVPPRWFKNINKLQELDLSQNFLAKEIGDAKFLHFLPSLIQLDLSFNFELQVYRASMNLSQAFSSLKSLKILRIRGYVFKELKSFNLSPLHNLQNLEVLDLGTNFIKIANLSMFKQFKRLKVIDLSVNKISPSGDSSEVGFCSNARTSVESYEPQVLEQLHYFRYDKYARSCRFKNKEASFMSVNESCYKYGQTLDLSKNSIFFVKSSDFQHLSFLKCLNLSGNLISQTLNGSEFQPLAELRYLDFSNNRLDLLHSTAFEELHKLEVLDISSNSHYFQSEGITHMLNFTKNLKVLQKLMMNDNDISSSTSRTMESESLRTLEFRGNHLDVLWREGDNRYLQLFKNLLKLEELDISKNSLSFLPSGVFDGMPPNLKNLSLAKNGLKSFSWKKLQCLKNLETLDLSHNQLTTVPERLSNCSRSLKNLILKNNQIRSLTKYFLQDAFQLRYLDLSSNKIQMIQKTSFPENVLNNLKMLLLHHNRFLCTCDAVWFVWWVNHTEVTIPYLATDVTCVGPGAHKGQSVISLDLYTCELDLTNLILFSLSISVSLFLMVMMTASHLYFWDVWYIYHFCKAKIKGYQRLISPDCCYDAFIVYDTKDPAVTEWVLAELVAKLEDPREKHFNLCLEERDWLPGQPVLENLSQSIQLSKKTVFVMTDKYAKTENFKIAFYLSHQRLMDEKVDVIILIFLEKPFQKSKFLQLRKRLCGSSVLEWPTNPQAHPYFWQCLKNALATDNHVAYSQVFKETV
Experimental: This procedure describes a method for assaying human TLR7 (hTLR7) agonist activity of the compounds disclosed in this specification.
HEK-Blue™ TLR7 cells were added to each well of a 384-well tissue-culture plate (15,000 cells per well) and incubated 16-18 h at 37° C., 5% CO2. Compounds (100 nl) were dispensed into wells containing the HEK-Blue™ TLR cells and the treated cells were incubated at 37° C., 5% CO2. After 18 h treatment ten microliters of freshly-prepared Quanti-Blue” reagent (Invivogen) was added to each well, incubated for 30 min (37° C., 5% CO2) and SEAP levels measured using an Envision plate reader (OD=620 nm). The half maximal effective concentration values (EC50; compound concentration which induced a response halfway between the assay baseline and maximum) were calculated.

CD69 = experiment: Induction of CD69 in human whole blood; type: cell-based; details: heparinized human whole blood, 17 hrs at 37° C.; 100% set to 1 uM resiquimod; average where assay performed multiple times; read-out: hWB CD69 EC50
Experimental: The induction of Type I interferon (IFN) MX-1 genes and the B-cell activation marker CD69 are downstream events that occur upon activation of the TLR7 pathway. The following is a human whole blood assay that measures their induction in response to a TLR7 agonist.
Heparinized human whole blood was harvested from human subjects and treated with test TLR7 agonist compounds at 1 mM. The blood was diluted with RPMI 1640 media and Echo was used to predot 10 nL per well giving a final concentration of 1 uM (10 nL in 10 uL of blood). After mixing on a shaker for 30 sec, the plates were covered and placed in a 37° C. chamber for o/n=17 hrs. Fixing/lysis buffer was prepared (5×→1× in H2O, warm at 37° C.; Cat #BD 558049) and kept the perm buffer (on ice) for later use.
For surface markers staining (CD69): prepared surface Abs: 0.045 ul hCD14-FITC (ThermoFisher Cat #MHCD1401)+0.6 ul hCD19-ef450 (ThermoFisher Cat #48-0198-42)+1.5 ul hCD69-PE (cat #BD555531)+0.855 ul FACS buffer. Added 3 ul/well, spin 1000 rpm for 1 min and mixed on shaker for 30 sec, put on ice for 30 mins. Stop stimulation after 30 min with 70 uL of prewarmed 1× fix/lysis buffer and use Feliex mate to resuspend (15 times, change tips for each plate) and incubate at 37 C for 10 min.
Centrifuge at 2000 rpm for 5 min aspirate with HCS plate washer, mix on shaker for 30 sec and then wash with 70 uL in dPBS and pelleted 2×s (2000 rpm for 5 min) and 50 ul wash in FACS buffer pelleted 1×s (2000 rpm for 5 min). Mix on shaker for 30 sec. For Intracellular markers staining (MX-1): Add 50 ul of BD Perm buffer III and mix on shaker for 30 sec. Incubate on ice for 30 min (in the dark). Wash with 50 uL of FACS buffer 2× (spin @2300 rpm×5 min after perm) followed by mixing on shaker for 30 sec. Resuspended in 20 ul of FACS buffer containing MX1 antibody ( )(4812)-Alexa 647: Novus Biologicals #NBP2-43704AF647) 20 ul FACS bf+0.8 ul hIgG+0.04 ul MX-1. Spin 1000 rpm for 1 min, mix on shaker for 30 se and the samples were incubated at RT in the dark for 45 min followed by washing 2×FACS buffer (spin @2300 rpm×5 min after perm). Resuspend 20 ul (35 uL total per well) of FACS buffer and cover with foil and place in 4° C. to read the following day. Plates were read on iQuePlus. The results were loaded into toolset and […] curves are generated in curve master. The y-axis 100% is set to 1 uM of resiquimod.

SMILES | EC50 (human TLR7) [nM] | EC50 (CD69) [nM]
CCCCNc1nc(N)nc2cnn(Cc3ccc(C(C)(C)N)cc3OC)c12 [Compound 101, 1-(4-(2-Aminopropan-2-yl)-2-methoxybenzyl)-N7-butyl-1H-pyrazolo[4,3-d]pyrimidine-5,7-diamine] | 76.6 | 11.6
CCC[C@@H](CCO)Nc1nc(N)nc2cnn(Cc3ccc(C(C)(C)N)cc3OC)c12 [Compound 102, (S)-3-((5-Amino-1-(4-(2-aminopropan-2-yl)-2-methoxybenzyl)-1H-pyrazolo[4,3-d]pyrimidin-7-yl)amino)hexan-1-ol] | 7.2 | 1.8
COc1cc(C(C)(C)N)ccc1Cn1ncc2nc(N)nc(NCc3cc(C)on3)c21 [Compound 103, 1-(4-(2-Aminopropan-2-yl)-2-methoxybenzyl)-N7-((5-methylisoxazol-3-yl)methyl)-1H-pyrazolo[4,3-d]pyrimidine-5,7-diamine] | 202 | –
CCCCNc1nc(N)nc2cnn(Cc3cc(C(C)(C)N)ccc3OC)c12 [Compound 105, 1-(5-(2-Aminopropan-2-yl)-2-methoxybenzyl)-N7-butyl-1H-pyrazolo[4,3-d]pyrimidine-5,7-diamine] | – | 50.6
CC[C@@H](CCO)Nc1nc(N)nc2cnn(Cc3ccc(C(C)(C)N)cc3OC)c12 [Compound 106, (S)-3-((5-amino-1-(4-(2-aminopropan-2-yl)-2-methoxybenzyl)-1H-pyrazolo[4,3-d]pyrimidin-7-yl)amino)pentan-1-ol] | 211 | 3.7
CCC[C@@H](CCO)Nc1nc(N)nc2cnn(Cc3ccc(C4(N)COC4)cc3OC)c12 [Compound 108, (S)-3-((5-amino-1-(4-(3-aminooxetan-3-yl)-2-methoxybenzyl)-1H-pyrazolo[4,3-d]pyrimidin-7-yl)amino)hexan-1-ol] | 43.4 | 3.3
CCC[C@@H](CCO)Nc1nc(N)nc2cnn(Cc3ccc(C(C)(C)O)cc3OC)c12 [Compound 109, (3S)-3-[(5-amino-1-{[4-(2-hydroxypropan-2-yl)-2-methoxyphenyl]methyl}-1H-pyrazolo[4,3-d]pyrimidin-7-yl)amino]hexan-1-ol] | 4.6 | 3.5
CCCCNc1nc(N)nc2cnn(Cc3ccc(C(C)(O)CCC)cc3OC)c12 (stereo not drawn) [Compound 113, 2-(4-{[5-amino-7-(butylamino)-1H-pyrazolo[4,3-d]pyrimidin-1-yl]methyl}-3-methoxyphenyl)pentan-2-ol] | 256 | –
CCCCNc1nc(N)nc2cnn(Cc3ccc(C4(O)COC4)cc3OC)c12 [Compound 114, 3-(4-{[5-amino-7-(butylamino)-1H-pyrazolo[4,3-d]pyrimidin-1-yl]methyl}-3-methoxyphenyl)oxetan-3-ol] | 410 | –
CCCCNc1nc(N)nc2cnn(Cc3ccc(C4(O)CNC4)cc3OC)c12 [Compound 116, 3-(4-{[5-amino-7-(butylamino)-1H-pyrazolo[4,3-d]pyrimidin-1-yl]methyl}-3-methoxyphenyl)-azetidin-3-ol] | 786 | –
CCCCNc1nc(N)nc2cnn(Cc3ccc(C4(O)CCC4)cc3OC)c12 [Compound 117, 1-(4-{[5-amino-7-(butylamino)-1H-pyrazolo[4,3-d]pyrimidin-1-yl]methyl}-3-methoxyphenyl)cyclobutan-1-ol] | 25.9 | 804
CCC[C@@H](CCO)Nc1nc(N)nc2cnn(Cc3nc(C(C)(C)N)ccc3OC)c12 [Compound 119, (3S)-3-[(5-amino-1-{[6-(2-aminopropan-2-yl)-3-methoxypyridin-2-yl]methyl}-1H-pyrazolo[4,3-d]pyrimidin-7-yl)amino]hexan-1-ol] | 4950 | –
CCC[C@@H](CCO)Nc1nc(N)nc2cnn(Cc3cnc(C(C)(C)N)cc3OC)c12 [Compound 120, (3S)-3-[(5-amino-1-{[6-(2-aminopropan-2-yl)-4-methoxypyridin-3-yl]methyl}-1H-pyrazolo[4,3-d]pyrimidin-7-yl)amino]hexan-1-ol] | 48.3 | –

Now from value to molecule:

EC50 (human TLR7) [nM] | EC50 (CD69) [nM] | SMILES
34.5 | 12.7 | CCC[C@@H](CCO)Nc1nc(N)nc2cnn(Cc3cc(C(C)(C)N)ccc3OC)c12 [Compound 104, (S)-3-((5-Amino-1-(5-(2-aminopropan-2-yl)-2-methoxybenzyl)-1H-pyrazolo[4,3-d]pyrimidin-7-yl)amino)hexan-1-ol]
247 | 42.6 | CCCCNc1nc(N)nc2cnn(Cc3ccc(C4(N)COC4)cc3OC)c12 [Compound 107, 1-(4-(3-aminooxetan-3-yl)-2-methoxybenzyl)-N7-butyl-1H-pyrazolo-[4,3-d]pyrimidine-5,7-diamine]
71.1 | – | CCCCNc1nc(N)nc2cnn(Cc3ccc(C(C)(C)O)cc3OC)c12 [Compound 110, 2-(4-{[5-amino-7-(butylamino)-1H-pyrazolo[4,3-d]pyrimidin-1-yl]methyl}-3-methoxyphenyl)propan-2-ol]
45.9 | – | CCCCNc1nc(N)nc2cnn(Cc3ccc(C(O)(CC)CC)cc3OC)c12 [Compound 111, 3-(4-{[5-amino-7-(butylamino)-1H-pyrazolo[4,3-d]pyrimidin-1-yl]methyl}-3-methoxyphenyl)pentan-3-ol]
95.9 | – | CCCCNc1nc(N)nc2cnn(Cc3ccc(C(C)(O)CC)cc3OC)c12 (stereo not drawn) [Compound 112, 2-(4-{[5-amino-7-(butylamino)-1H-pyrazolo[4,3-d]pyrimidin-1-yl]methyl}-3-methoxyphenyl)butan-2-ol]
146 | 340 | CCCCNc1nc(N)nc2cnn(Cc3ccc(C(C)(O)C(F)(F)F)cc3OC)c12 (stereo not drawn) [Compound 115, 2-(4-{[5-amino-7-(butylamino)-1H-pyrazolo[4,3-d]pyrimidin-1-yl]methyl}-3-methoxyphenyl)-1,1,1-trifluoropropan-2-ol]
257 | 276 | CCCCNc1nc(N)nc2cnn(Cc3ccc(C4(O)CC4)cc3OC)c12 [Compound 118, 1-(4-{[5-amino-7-(butylamino)-1H-pyrazolo[4,3-d]pyrimidin-1-yl]methyl}-3-methoxyphenyl)cyclopropan-1-ol]
